Measured values: US20220017501A1, “MICROBIOCIDAL THIAZOLE DERIVATIVES” (SYNGENTA PARTICIPATIONS AG, priority 2018, published 2022)

Columns and labels:
physchem = details: pH 7
[1] = Photostability, thin-film irradiation (Atlas Suntest); assay type: physicochemical; details: thin film on glass, filtered xenon lamp 750 W/m2; time for first 50% loss
Method: Throughout the following description, LogP means logarithm of the partition coefficient, ppm means parts per million, and T50 represents the half-time of the compound under irradiation conditions.
Photostability tests were carried out by irradiation of thin-film deposits of compounds and 20 formulations on glass surfaces, using a filtered xenon lamp system (Atlas Suntest) which reproduces the spectrum and intensity of sunlight. The spectral output power of the Suntest was set to 750 W/m2, which is the typical daily maximum irradiance level at noon (UK, midsummer).
Test compounds were typically dissolved in HPLC grade methanol to give 1 g/L stock solutions. Alternatively, formulated compounds were suspended in water at the same concentration. 2 μL droplets of test solutions were spotted onto microscope cover slips in a 3D printed holder, allowed to dry then irradiated in the Suntest for varying times. […] Solutions were analysed by reverse phase HPLC, typically using a Waters UPLC system with Photodiode Array (PDA) and Waters columns (BEH C18, 100×2.1mm×1.7 μm) using mixed aqueous:acetonitrile mobile phase, acidifed with 0.2% formic acid. Peak detection was at the optimum wavelength for each candidate compound and PDA peak areas were used for quantification. […]

[2] = assay type: physicochemical; details: for Solubility in water: pH 7.2
Method: Saturated solutions of test compounds were prepared in either aqueous buffer solutions (10 mM mixed phosphate, pH 7.20) or in heptane. Typically 1 mg of test compound in a 2 dram vial with 1 mL of buffer or heptane was left overnight (20 hours) on a roller shaker after an initial 20 minute period in a sonic bath. Saturated samples were then filtered through Millex-HV 0.45 micron syringe driven filters (aqueous or non-aqueous version dependent on solvent). […] Protocol variations included pre-saturation of the filters for compounds expected to have very low solubility, and centrifugation of the saturated samples for oils.

[3] = system: Magnaporthe grisea (Pyricularia oryzae); assay: whole plant or invertebrate; assay type: in vivo; details: foliar, read-out: control of Magnaporthe grisea
[4] = system: Glomerella lagenarium (Colletotrichum lagenarium); assay: Glomerella lagenarium (Colletotrichum lagenarium) / liquid culture (anthracnose); assay type: cell-based; details: Colletotrichum orbiculare, growth inhibition photometrically 3-4 days after application, read-out: control of Glomerella lagenarium
Method: (§1) Example B3: Glomerella Lagenarium (Colletotrichum Lagenarium)/Liquid Culture (Anthracnose) Conidia of the fungus from cryogenic storage are directly mixed into nutrient broth (PDB potato dextrose broth). After placing a (DMSO) solution of test compound into a microtiter plate (96-well format), the nutrient broth containing the fungal spores is added. The test plates are incubated at 24° C. and the inhibition of growth is measured photometrically 3-4 days after application.

[5] = system: Monographella nivalis (Microdochium nivale); assay: Monographella nivalis (Microdochium nivale) / liquid culture (foot rot cereals); assay type: cell-based; details: growth inhibition photometrically 4-5 days after application, read-out: control of Monographella nivalis
Method: as §1, with “B7: Monographella Nivalis (Microdochium Nivale)/Liquid” for “B3: Glomerella Lagenarium (Colletotrichum Lagenarium)/Liquid”, “(Foot Rot Cereals)” for “(Anthracnose)”, “determined” for “measured”, “4-5” for “3-4”, “application. […] […].23.” for “application.”

[6] = system: Mycosphaerella graminicola (Septoria tritici); assay: Mycosphaerella graminicola (Septoria tritici) / liquid culture (Septoria blotch); assay type: cell-based; details: Zymoseptoria tritici, growth inhibition photometrically 4-5 days after application, read-out: control of Mycosphaerella graminicola
Method: as §1, with “B16: Mycosphaerella Graminicola (Septoria Tritici)/Liquid” for “B3: Glomerella Lagenarium (Colletotrichum Lagenarium)/Liquid”, “(Septoria Blotch)” for “(Anthracnose)”, “determined” for “measured”, “4-5” for “3-4”, “application. […] […].23.” for “application.”

Pyrenophora teres = Pyrenophora teres / barley / leaf disc preventative (net blotch); assay type: in vivo; details: foliar, barley leaf segments, compared to untreated control
Method: Example B14: Pyrenophora Teres/Barley/Leaf Disc Preventative (Net Blotch) Barley leaf segments cv. Hasso are placed on agar in a multiwell plate (24-well format) and sprayed with the formulated test compound diluted in water. The leaf […] inoculated with a spore suspension of the fungus 2 days after application. The inoculated leaf segments are incubated at 20° C. and 65% rh under a light regime of 12 h light/12 h darkness in a climate cabinet and the activity of a compound is assessed as disease control compared to untreated when an appropriate level of disease damage appears in untreated check leaf segments (5-7 days after application). […] […].23.

[7] = system: Blumeria graminis f. sp. tritici (Erysiphe graminis f. sp. tritici); assay: Blumeria graminis f. sp. tritici / wheat / leaf disc preventative (powdery mildew on wheat); assay type: in vivo; details: foliar, wheat leaf segments, compared to untreated control
Method: Example B4: Blumeria Graminis f. sp. Tritici (Erysiphe Graminis f. sp. Tritici)/Wheat/Leaf Disc Preventative (Powdery Mildew on Wheat) Wheat leaf segments cv. Kanzler are placed on agar in a multiwell plate (24-well format) and sprayed with the formulated test compound diluted in water. The leaf disks are inoculated by shaking powdery mildew infected plants above the test plates 1 day after application. The inoculated leaf disks are incubated at 20° C. and 60% rh under a light regime of 24 h darkness followed by 12 h light/12 h darkness in a climate chamber and the activity of a compound is assessed as percent disease control compared to untreated when an appropriate level of disease damage appears on untreated check leaf segments (6-8 days after application). […].23.

[8] = system: Mycosphaerella arachidis (Cercospora arachidicola); assay: Mycosphaerella arachidis (Cercospora arachidicola) / liquid culture (early leaf spot); assay type: cell-based; details: growth inhibition photometrically 4-5 days after application, read-out: control of Mycosphaerella arachidis
Method: as §1, with “B8: Mycosphaerella Arachidis (Cercospora Arachidicola)/Liquid” for “B3: Glomerella Lagenarium (Colletotrichum Lagenarium)/Liquid”, “(Early Leaf Spot)” for “(Anthracnose)”, “determined” for “measured”, “4-5” for “3-4”, “application. […] […].23.” for “application.”

Fusarium culmorum = assay type: in vivo; details: 200 ppm; wheat spikelets, preventative; compared to untreated control
[9] = system: Puccinia recondita f. sp. tritici; assay: Puccinia recondita f. sp. tritici / wheat / leaf disc preventative (brown rust); assay type: in vivo; details: foliar, wheat leaf segments, preventative (inoculated 1 day after application), compared to untreated control, read-out: control of Puccinia recondite f. sp. tritici
Method: Example B12: Puccinia Recondita f. sp. Tritici/Wheat/Leaf Disc Preventative (Brown Rust) Wheat leaf segments cv. Kanzler are placed on agar in multiwell plates (24-well format) and sprayed with the formulated test compound diluted in water. The leaf disks are inoculated with a spore suspension of the fungus 1 day after application. The inoculated leaf segments are incubated at 19° C. and 75% rh under a light regime of 12 h light/12 h darkness in a climate cabinet and the activity of a compound is assessed as percent disease control compared to untreated when an appropriate level of disease damage appears in untreated check leaf segments (7-9 days after application). […] […].23.

| Structure (SMILES) | chromatographic logP (physchem) | Photostability T50 [1] | Solubility in heptane [2] | Solubility in water [2] | pest or weed control at 200 ppm [3] | inhibition of growth at 20 ppm [4] | inhibition of growth at 20 ppm [5] | inhibition of growth at 20 ppm [6] | pest or weed control at 200 ppm (Pyrenophora teres) | pest or weed control at 200 ppm [7] | inhibition of growth at 20 ppm [8] | control of Fusarium culmorum (Fusarium culmorum) | pest or weed control at 200 ppm [9] | melting point |
| --- | --- | --- | --- | --- | --- | --- | --- | --- | --- | --- | --- | --- | --- | --- |
| Cc1sc(Nc2cc(F)nc(F)c2)nc1C(=O)NC1CCC1(C)C (stereo not drawn) [Compound E-0, 2-[(2,6-difluoro-4-pyridyl)amino]-N-(2,2-dimethylcyclobutyl)-5-methyl-thiazole-4-carboxamide, reference compound] | 5.08 | 3.5 h | 4.1 ppm | 0.70 ppm | – | – | – | – | – | – | – | – | – | – |
| Cc1sc(N(C#N)c2cc(F)nc(F)c2)nc1C(=O)NC1CCC1(C)C (stereo not drawn) [I.b.23, 2-[cyano-(2,6-difluoro-4-pyridyl)amino]-N-(2,2-dimethylcyclobutyl)-5-methyl-thiazole-4-carboxamide] | 3.76 | 11 h | 699 ppm | 2.5 ppm | ≥ 80% | ≥ 80% | ≥ 80% | ≥ 80% | ≥ 80% | ≥ 80% | ≥ 80% | at least 80% | – | – |
| Cc1sc(N(C#N)c2cncc(F)c2)nc1C(=O)NC1CCC1(C)C (stereo not drawn) [I.b.18, 2-[cyano-(5-fluoro-3-pyridyl)amino]-N-(2,2-dimethylcyclobutyl)-5-methyl-thiazole-4-carboxamide] | – | – | – | – | ≥ 80% | ≥ 80% | ≥ 80% | ≥ 80% | – | ≥ 80% | ≥ 80% | – | ≥ 80% | 150 to 152 °C |
